“Also recorded” adds a separate entry of the source.
How the values were obtained:
broiler chickens = test: Growth performance and mortality of broiler chickens raised in floor pens; format: in vivo, broiler chickens (Cobb×Cobb); conditions: for Feed Conversion, Day 21-35: grower period; for Daily Feed intake, Day 0-21 / Daily Feed intake, Day 0-35 / Daily Feed intake, Day 21-35: per bird
Experimental: This experiment examined the effect of N-(3-oxohexanoyl)-L-homoserine lactone (OHHL) (CAS #: 143537626, molecular formula : C10H15NO4, molecular weight: 213) on the growth performance and mortality of broiler chickens.
A stock solution of 1 mM OHHL (0.213 g/L) was prepared as follows. Approximately 50% of the required volume of distilled water was warmed to approximately 30-40° C. and used to dissolve the required amount of OHHL powder. The solution was made up to volume using distilled water stored at room temperature. OHHL solution (0.213 g/L) was applied to treated crumbled feed at a rate of 3 kg per tonne. Control feed was treated with distilled water at a rate of 3 kg per tonne. The OHHL solution was stored for less than 2 days prior to application to feed.
The antibiotic BMD®110 was used as a positive control in this study. The active ingredient is bacitracin methylene disalicyclate. The product contains 110 g of bacitracin activity per kg and is approved for prevention of necrotic enteritis in broiler chickens when given at a dose of 55 ppm in feed (500 g BMD®110/tonne feed).
Coxistac® 6% premix was used as an ionophore in all study diets as an aid in the prevention of coccidiosis. The product contained 60 g salinomycin per kg and was administered at a dose of 60 ppm in feed (1 kg Coxistac® 6% premix per tonne feed).
The experiment lasted 35 days with the day of placement of broiler chicks considered as day zero. A total of 1,200 male day-old broiler chickens (Cobb×Cobb) were assigned to treatment on day 0. Birds were vaccinated for Marek's disease at the hatchery. Twenty-four pens, each providing 45 square feet of floor space, were assigned to treatment groups. […] Adjacent pens were separated by a solid 12-inch high plastic barrier at bird level. A welded wire fence with 1-inch square openings was located on top of all barriers. Each pen was permanently identified by number and contained 50 birds on day zero. Each pen contained four nipple-type drinkers which provided clean drinking water ad libitum. Dry feed was provided ad libitum in tube-type feeders (one per pen) of 20 kg capacity.
The barn was heated by five natural gas heaters which were equally spaced and positioned to warm incoming air at the north wall of the building. Air was exhausted by fans located on the south-facing wall of the building. Lighting program, barn temperature, and other management practices were typical of commercial broiler chicken producers in North America. Birds that were moribund and unable to reach food or water were culled and euthanised by carbon dioxide gas.
Bodyweight, pen number and date of death were recorded for each bird that was culled or found dead. Mortalities were submitted to the pathologist to determine the apparent cause of death.
A randomised complete block design was used to study the main and interactive-effects of OHHL (0 and 0.639 g/tonne) and dietary antibiotic ([…]) in a 2×2 factorial arrangement. Dietary treatments were as follows:
There were four pens per block and six replicate blocks for a total of 24 pens.
The feeding program was used in the study used a starter feed type on days 0 to 20 and a grower feed type on days 21 to 35. Diet formulation was representative of commercial diets in North America.
A starter diets using a basal mix of starter diet containing either 0 or 55 ppm BMD was manufactured, pelleted, and crumbled. Bagged starter feed was treated with either distilled water (0 g OHHL per L) or OHHL solution (0.213 g OHHL per L) using a horizontal double ribbon mixer of 100 kg capacity. Distilled water or OHHL solution (0.213 g per L) were applied to crumbled feed at a rate of 3 kg per tonne feed. Grower diets were manufactured as described above for starters.
The data collected consisted of:
1. Bodyweight on days 0, 21, and 35.
2. Amounts of each feed (starter and grower) consumed.
3. Bodyweight and date of death for birds which were culled or died.
4. […]

cultures of rumen fluid = test: In vitro digestion of grass silage by cultures of rumen fluid; format: cell-based, cow; conditions: OHHL 0, 200, 500 and 1000 nanomoles final in rumen fluid, 37° C., 10 hours, triplicate
Text: Autoinducer compounds such as acyl homoserine lactones can have significant effects on cultures of bacteria. For example, they may be used to induce expression of antibiotics and extracellular enzymes. […] is the signal molecule for antibiotic production in Chromobacterium violaceum; butanoyl homoserine lactone triggers various phenotypes in Pseudomonas aeruginosa including the production of various enzymes and lectins. OHHL is known to have different effects on different species. For example, in Erwinia stewartii it induces production of exopolysaccharides, while in Vibrio species it promotes bioluminescence. Thus, in a complex mixed culture comprising many species including ruminobacter sp., prevotella sp., ruminococcus sp., it is hard to predict the specific phenotypes that will be induced by even the introduction of just one autoinducer compound. However. the global effect on rumen mixed culture fermentation can be measured in terms of the efficiency of digestion of forage. […] A control sample treated with water and four test samples treated with using nanomolar concentrations of OHHL are examined.
Rumen fluid was collected from a healthy fistulated grass fed cow and immediately dispensed into 75 ml bottles. These bottles were kept at 37° C. […]

sheep = test: Rumen dry matter disappearance of corn silage in cannulated sheep (in situ bags); format: in vivo; design: dry matter disappearance, OHHL − Control, Mean / dry matter disappearance, OHHL − Control, 4 Hours / dry matter disappearance, OHHL − Control, 8 Hours / dry matter disappearance, OHHL − Control, 12 Hours / dry matter disappearance, OHHL − Control, 24 Hours: concentration or dose not given beside the values
Experimental: This experiment examined the effect of N-(3-oxohexanoyl)-L-homoserine lactone (OHHL) (CAS#: 143537626, molecular formula : C10H15NO4, molecular weight: 213) on rumen dry matter disappearance in vivo in sheep.
A stock solution of OHHL (0.639 gram/L) was prepared as follows. Approximately 50% of the required volume of distilled water was warmed to approximately 30-40° C. and used to dissolve the required amount of OHHL powder. The volumetric flask was made up to volume using distilled water stored at room temperature. OHHL solution was applied to pelleted sheep ration at a rate of 3 kg per tonne of feed. Control feed was treated with 3 kg of distilled water per tonne.
Initial attempts to administer OHHL by application of an aqueous solution to the outside of pelleted feed were modified as the sheep decreased intake of treated feed after a few days. Instead, OHHL was administered as an oral drench twice daily commencing on the afternoon of Day 11 of each period.
A restricted quantity of pelleted ration was provided at a rate of approximately 0.5 kg/day (0.25 kg in the a.m. and 0.25 kg in the p.m.). Access to hay was restricted as needed to help ensure that sheep ration was consumed.
On Days 12 and 13, pelleted ration (0.25 kg/animal) was issued to animals approximately 1 hour prior to introduction of bags into the rumen and again following removal of the 8-hour bag from each animal.
One fresh sample of corn silage was dried to constant weight and allowed to cool to room temperature. A representative sub-sample was taken for dry matter determination. The sample was ground to pass a 1 mm screen, mixed and sampled for dry matter assay. The remaining sample was stored for in situ determination of dry matter disappearance from the rumen of cannulated sheep.
Ankom rumen sampling bags were used in the study. Each bag was approximately 5 cm×10 cm, suitable for a one-gram sample. Pore size was 53±10 microns. Dried, ground corn silage was weighed (1.00±0.01 grams) into bags and sealed. A set of four bags was prepared per animal per day and these were attached to a string to facilitate placement in and removal from the rumen. A fifth bag served as a blank for each set of four bags. The blank was not placed in the rumen but was washed, processed and dried.
A rumen cannula was surgically placed in each of five mature (approximately 3-year old) ewes. Following recovery from surgery, four of these animals were selected for use in the study. The fifth animal served as a reserve for use in the event of post-surgical complications in a study animal.
Dry matter disappearance was measured by removing bags from the rumen at 4, 8, 12 and 24 hours and washed under cold running tap water together with a corresponding blank bag. Bags were then dried to constant weight. Measurement of dry matter disappearance was completed for each animal commencing on the morning of Day 12 and Day 13 of each period.
A Latin Square Design was used to study the effects of two treatments:
A, Control: 0 gram OHHL per tonne ration.
B: Treated with the equivalent of 1.917 gram OHHL per tonne ration.
Each period was of 14 days duration. A total of four study animals were blocked based on bodyweight (2 blocks). Animals within block were randomly assigned to Sequence 1 or 2:
Data were analysed by a multiple regression analysis that included effects of treatment, animal, period, study day and hour.

[1] = individual treatment mean (2×2 factorial cell)
[2] = individual treatment mean (2×2 factorial cell), OHHL 0.639 g/tonne feed, BMD 110 500 g/tonne
[3] = main-effect mean pooled over the other factor

## CCCC(=O)CC(=O)N[C@H]1CCOC1=O [OHHL, N-(3-oxohexanoyl)-L-homoserine lactone]
Broiler chickens; continuous administration in feed for 35 days, necropsy of all mortalities
  adverse effects on bird health / survival: no evidence of any adverse effect; also recorded: did not have an adverse effect on bird survival
Broiler chickens; [1]
  Mortality, Day 0-21: 1.0%
  Mortality, Day 0-35: 1.7%
  Mortality, Day 21-35: 0.7%
  Feed Conversion, Day 21-35: 1.812
  Daily Feed intake, Day 0-21: 0.049
  Daily Feed intake, Day 0-35: 0.088
  Daily Feed intake, Day 21-35: 0.147
Broiler chickens; [2]
  Average bodyweight, Day 21: 0.796 kg
  Average bodyweight, Day 35: 1.934 kg
Broiler chickens; individual treatment mean (2×2 factorial cell), overall period
  Feed Conversion, Day 0-35: 1.629
Broiler chickens; individual treatment mean (2×2 factorial cell), starter period
  Feed Conversion, Day 0-21: 1.357
Broiler chickens; [3]
  Mortality, Day 0-21: 1.3%
  Mortality, Day 0-35: 2.2%
  Mortality, Day 21-35: 0.8%
  Feed Conversion, Day 21-35: 1.794
  Daily Feed intake, Day 0-21: 0.048
  Daily Feed intake, Day 0-35: 0.087
  Daily Feed intake, Day 21-35: 0.147
Broiler chickens; main-effect mean pooled over the other factor, OHHL 0.639 g/tonne feed, BMD 110 500 g/tonne
  Average bodyweight, Day 35: 1.937 kg
Cultures of rumen fluid
  mean percentage loss of weight of grass silage: increased the mean percentage loss of weight
sheep; corn silage in rumen bags, 4 h incubation, OHHL equivalent to 1.917 gram per tonne ration, oral drench twice daily
  dry matter disappearance, 4 Hours: 53.0%
sheep; corn silage in rumen bags, 8 h incubation, OHHL equivalent to 1.917 gram per tonne ration
  dry matter disappearance, 8 Hours: 57.8%
sheep; corn silage in rumen bags, 12 h incubation, OHHL equivalent to 1.917 gram per tonne ration
  dry matter disappearance, 12 Hours: 65.7%
sheep; corn silage in rumen bags, 24 h incubation, OHHL equivalent to 1.917 gram per tonne ration
  dry matter disappearance, 24 Hours: 74.5%
sheep; difference to control, 4 h
  dry matter disappearance, OHHL − Control, 4 Hours: 4.16%
sheep; difference to control, 8 h
  dry matter disappearance, OHHL − Control, 8 Hours: −0.60%
sheep; difference to control, 12 h
  dry matter disappearance, OHHL − Control, 12 Hours: 3.36%
sheep; difference to control, 24 h
  dry matter disappearance, OHHL − Control, 24 Hours: 0.15%
sheep; difference to control, mean of all times (percentage units; P=0.105)
  dry matter disappearance, OHHL − Control, Mean: 1.77%
sheep; mean over 4, 8, 12, 24 h
  dry matter disappearance, Mean: 62.7%

Source: patent publication US20040115245A1, “Autoinducer compounds and their uses” (priority 2001, published 2004)
